Test results published in patent publication US20060148009A1, “Prediction and assessment of immunogenicity” (Xencor, Inc., priority 2004, published 2006).

Test system: MHC class II proteins on B cells (DRB1*0701 DQA1*0201 DQB1*0202)
Assay: Peptide binding assay: competition of biotinylated EBV280-290 binding to B cells, flow cytometry
Conditions: FIG. 29
Procedure: Peptide binding to MHC class II proteins on the surface of Epstein-Barr virus-transformed B lymphocytes was tested by quantitative flow cytometric analysis (Busch et al. 1990), with modifications. Low resolution HLA typed B cell lines (DR2 and DR7) were obtained from the Coriell Institute for Medical Research (Camden, N.J.). Those cell lines were HLA typed at high resolution for DRB1, DQA1 and DQB1. The B cell lines GM03107, GM08605, and Jesthom were selected for binding studies. The following MHC allele and reference peptide combinations were used: DRB1*0101 and influenzae peptide HA307-319, […] (SEQ ID NO:48) (Busch, R. 1991); DRB1*0701 and Epstein-Barr virus peptide EBV280-290, […] (SEQ ID NO:49) (Omiya et al., 2002); DRB1*1501 and myelin basic protein MBP84-100, […] (SEQ ID NO:50) (Fridkis-Hareli et al., 2001). A biotin molecule followed by a caproic acid-caproic acid spacer was added to the N-terminus of the reference peptides. The binding of biotinylated peptides to the MHC molecules was tested at various pH values. The pH 5.5 was used to test competition with IFN-β peptides. Detection of peptide binding was done with streptavidin-AlexaFluor546 (Molecular Probes, Eugene, O.R.) in a PCA-96 flow cell counter (Guava Technologies Inc., Hayward, Calif.). […]

HYLKAKEYSHCAWTIVR
competition of EBV280-290 peptide binding to B cells: dose-dependent competition
